Reference: patent US10774064B2 (Cadent Therapeutics, Inc., priority 2016, dated 2020)

biological target: T1, small-conductance Ca2+-activated K+ channels (SK channels, subtype 2) (Homo sapiens, UniProt Q9H2S1); test: whole-cell patch-clamp of ionic current through SK2 channels in HEK293 cells (SC100); type: cell-based; conditions: concentration that increases the basal current by 100%; HEK293 cells expressing SK2 channels
T1 construct: expressed in transfected cells; host or cells: HEK293
Outline: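 Whole-cell patch-clamp recording of current in HEK293 cells expressing SK2 channels. SC100 is the compound concentration that increases basal current by 100%.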

Row | Compound | SC100
1 | Cc1cc(C)n(-c2nc(CO)cc(NC3CCC(F)(F)C3)n2)n1 (centres unmarked) [Compound 192, (6-((3,3-difluorocyclopentyl)amino)-2-(3,5-dimethyl-1H-pyrazol-1-yl)pyrimidin-4-yl)methanol] | ++ (++ means 200 nM-1000 nM)
2 | Cc1cc(C)n(-c2cc(CN)cc(NC3CCC(F)(F)CC3)n2)n1 [Compound 195, 4-(aminomethyl)-N-(4,4-difluorocyclohexyl)-6-(3,5-dimethyl-1H-pyrazol-1-yl)pyridin-2-amine] | ++ (++ means 200 nM-1000 nM)
3 | CCc1ccn(-c2nc(C)cc(NC3CCC(F)(F)CC3)n2)n1 [Compound 197, N-(4,4-difluorocyclohexyl)-2-(3-ethyl-1H-pyrazol-1-yl)-6-methylpyrimidin-4-amine] | ++ (++ means 200 nM-1000 nM)
4 | Cc1cc(C)n(-c2nc(NC3CCC(F)(F)CC3)cc([C@H](C)O)n2)n1 [Compound 199, (+)1-(6-((4,4-difluorocyclohexyl)amino)-2-(3,5-dimethyl-1H-pyrazol-1-yl)pyrimidin-4-yl)ethan-1-ol] | ++ (++ means 200 nM-1000 nM)
5 | Cc1cc(NC2CCC(F)(F)CC2)nc(-n2ccc(CO)n2)n1 [Compound 204, (1-(4-((4,4-difluorocyclohexyl)amino)-6-methylpyrimidin-2-yl)-1H-pyrazol-3-yl)methanol] | + (+ means >1 uM)
6 | Cc1cc(C)n(-c2cc(C(C)(C)O)cc(NC3CCC(F)(F)CC3)n2)n1 [Compound 206, 2-(2-((4,4-difluorocyclohexyl)amino)-6-(3,5-dimethyl-1H-pyrazol-1-yl)pyridin-4-yl)propan-2-ol] | + (+ means >1 uM)
7 | Cc1cc(C)n(-c2cc(C(C)O)cc(NC3CCC(F)(F)CC3)n2)n1 (centres unmarked) [Compound 207, 1-(2-((4,4-difluorocyclohexyl)amino)-6-(3,5-dimethyl-1H-pyrazol-1-yl)pyridin-4-yl)ethan-1-ol] | + (+ means >1 uM)
8 | Cc1cc(NC2CCC(F)(F)CC2)nc(-n2ccc(CC#N)n2)n1 [Compound 208, 2-(1-(4-((4,4-difluorocyclohexyl)amino)-6-methylpyrimidin-2-yl)-1H-pyrazol-3-yl)acetonitrile] | ++ (++ means 200 nM-1000 nM)
9 | Cc1ccn(-c2nc(NC3CCC(F)(F)CC3)cc(OC3CN(C(=O)C(C)(C)C)C3)n2)n1 [Compound 211, 1-(3-((6-((4,4-difluorocyclohexyl)amino)-2-(3-methyl-1H-pyrazol-1-yl)pyrimidin-4-yl)oxy)azetidin-1-yl)-2,2-dimethylpropan-1-one] | +++ (+++ means <200 nM)
10 | Cc1cc(NC2CCC(F)(F)CC2)nc(-n2ccc(C#N)n2)n1 [Compound 212, 1-(4-((4,4-difluorocyclohexyl)amino)-6-methylpyrimidin-2-yl)-1H-pyrazole-3-carbonitrile] | + (+ means >1 uM)
11 | Cc1cc(NC2CCC(F)(F)CC2)nc(-n2ccc(C(C)(C)O)n2)n1 [Compound 215, 2-(1-(4-((4,4-difluorocyclohexyl)amino)-6-methylpyrimidin-2-yl)-1H-pyrazol-3-yl)propan-2-ol] | + (+ means >1 uM)
12 | Cc1cc(C)n(-c2nc(NC3CCC(F)(F)C3)cc(C3CC3)n2)n1 (centres unmarked) [Compound 217, 6-cyclopropyl-N-(3,3-difluorocyclopentyl)-2-(3,5-dimethyl-1H-pyrazol-1-yl)pyrimidin-4-amine] | + (+ means >1 uM)
13 | COc1cccc(-c2nc(C)cc(NC3CCC(F)(F)CC3)n2)n1 [Compound 219, N-(4,4-difluorocyclohexyl)-2-(6-methoxypyridin-2-yl)-6-methylpyrimidin-4-amine] | + (+ means >1 uM)
14 | Cc1cc(NC2CCC(F)(F)CC2)nc(-n2nc(C3CC3)cc2C)n1 [Compound 221, 2-(3-cyclopropyl-5-methyl-1H-pyrazol-1-yl)-N-(4,4-difluorocyclohexyl)-6-methylpyrimidin-4-amine] | + (+ means >1 uM)
15 | Cc1cc(C)n(-c2cc(C3CC3)nc(NC3CCC(F)(F)C3)n2)n1 (centres unmarked) [Compound 222, 4-cyclopropyl-N-(3,3-difluorocyclopentyl)-6-(3,5-dimethyl-1H-pyrazol-1-yl)pyrimidin-2-amine] | + (+ means >1 uM)
16 | Cc1cc(C)n(-c2nc(NC3CCC(F)(F)C3)cc(C(C)O)n2)n1 (centres unmarked) [Compound 225, 1-(6-((3,3-difluorocyclopentyl)amino)-2-(3,5-dimethyl-1H-pyrazol-1-yl)pyrimidin-4-yl)ethan-1-ol] | + (+ means >1 uM)
17 | Cc1cc(C)n(-c2nc(NC3CCC(F)(F)CC3)cc(N3CCOC(C(C)(C)O)C3)n2)n1 (centres unmarked) [Compound 227, 2-(4-(6-((4,4-difluorocyclohexyl)amino)-2-(3,5-dimethyl-1H-pyrazol-1-yl)pyrimidin-4-yl)morpholin-2-yl)propan-2-ol] | ++ (++ means 200 nM-1000 nM)
18 | Cc1cc(NC2CCC(F)(F)CC2)nc(-c2nc(C)cs2)n1 [Compound 231, N-(4,4-difluorocyclohexyl)-6-methyl-2-(4-methylthiazol-2-yl)pyrimidin-4-amine] | ++ (++ means 200 nM-1000 nM)
19 | Cc1ccn(-c2nc(NC3CCC(F)(F)CC3)cc(C3COCCC3O)n2)n1 (centres unmarked) [Compound 232, 3-(6-((4,4-difluorocyclohexyl)amino)-2-(3-methyl-1H-pyrazol-1-yl)pyrimidin-4-yl)tetrahydro-2H-pyran-4-ol] | + (+ means >1 uM)

Results, then the molecule that gave them:

Row | SC100 | Compound
20 | + (+ means >1 uM) | COCc1cc(NC2CCC(F)(F)CC2)nc(-n2nc(C)cc2C)n1 [Compound 193]
21 | ++ (++ means 200 nM-1000 nM) | COCC1CN(c2cc(NC3CCC(F)(F)CC3)nc(-n3nc(C)cc3C)n2)CCO1 (centres unmarked) [Compound 194, N-(4,4-difluorocyclohexyl)-2-(3,5-dimethyl-1H-pyrazol-1-yl)-6-(2-(methoxymethyl)morpholino)pyrimidin-4-amine]
22 | + (+ means >1 uM) | Cc1cc(NC2CCC(F)(F)CC2)nc(-n2cc(F)cn2)n1 [Compound 196, N-(4,4-difluorocyclohexyl)-2-(4-fluoro-1H-pyrazol-1-yl)-6-methylpyrimidin-4-amine]
23 | ++ (++ means 200 nM-1000 nM) | Cc1cc(NC2CCC(F)(F)CC2)nc(-n2ccc(C(F)(F)F)n2)n1 [Compound 200, N-(4,4-difluorocyclohexyl)-6-methyl-2-(3-(trifluoromethyl)-1H-pyrazol-1-yl)pyrimidin-4-amine]
24 | ++ (++ means 200 nM-1000 nM) | Cc1cc(NC2CCC(F)(F)CC2)nc(-n2nc(C)c(F)c2C)n1 [Compound 201, N-(4,4-difluorocyclohexyl)-2-(4-fluoro-3,5-dimethyl-1H-pyrazol-1-yl)-6-methylpyrimidin-4-amine]
25 | + (+ means >1 uM) | Cc1cc(NC2CCC(F)(F)CC2)nc(-n2ccc(C(C)O)n2)n1 (centres unmarked) [Compound 202, 1-(1-(4-((4,4-difluorocyclohexyl)amino)-6-methylpyrimidin-2-yl)-1H-pyrazol-3-yl)ethan-1-ol]
26 | ++ (++ means 200 nM-1000 nM) | Cc1cc(NC2CCC(F)(F)CC2)nc(-n2ccc(C3CC3)n2)n1 [Compound 203, 2-(3-cyclopropyl-1H-pyrazol-1-yl)-N-(4,4-difluorocyclohexyl)-6-methylpyrimidin-4-amine]
27 | + (+ means >1 uM) | Cc1cc(C)n(-c2nc(NC3CCC(F)(F)CC3)cc(OC(F)F)n2)n1 [Compound 209, N-(4,4-difluorocyclohexyl)-6-(difluoromethoxy)-2-(3,5-dimethyl-1H-pyrazol-1-yl)pyrimidin-4-amine]
28 | ++ (++ means 200 nM-1000 nM) | Cc1ccn(-c2nc(NC3CCC(F)(F)CC3)cc(OC3CN(C(=O)C(C)C)C3)n2)n1 [Compound 210, 1-(3-((6-((4,4-difluorocyclohexyl)amino)-2-(3-methyl-1H-pyrazol-1-yl)pyrimidin-4-yl)oxy)azetidin-1-yl)-2-methylpropan-1-one]
29 | + (+ means >1 uM) | Cc1cc(C)n(-c2nc(NC3CCC(F)(F)C3)cc(C(C)(C)O)n2)n1 (centres unmarked) [Compound 214, 2-(6-((3,3-difluorocyclopentyl)amino)-2-(3,5-dimethyl-1H-pyrazol-1-yl)pyrimidin-4-yl)propan-2-ol]
30 | ++ (++ means 200 nM-1000 nM) | Cc1cc(NC2CCC(F)(F)CC2)nc(-n2ccc(C(F)F)n2)n1 [Compound 216]
31 | ++ (++ means 200 nM-1000 nM) | Cc1cc(NC2CCC(F)(F)CC2)nc(-n2ccc(C(C)C)n2)n1 [Compound 218, N-(4,4-difluorocyclohexyl)-2-(3-isopropyl-1H-pyrazol-1-yl)-6-methylpyrimidin-4-amine]
32 | ++ (++ means 200 nM-1000 nM) | Cc1cc(NC2CCC(F)(F)CC2)nc(-n2nc(Br)cc2C)n1 [Compound 220, 2-(3-bromo-5-methyl-1H-pyrazol-1-yl)-N-(4,4-difluorocyclohexyl)-6-methylpyrimidin-4-amine]
33 | + (+ means >1 uM) | Cc1cc(NC2CCC(F)(F)CC2)nc(-n2ccc(CF)n2)n1 [Compound 223]
34 | + (+ means >1 uM) | Cc1cccc(-c2nc(C)cc(NC3CCC(F)(F)CC3)n2)n1 [Compound 224, N-(4,4-difluorocyclohexyl)-6-methyl-2-(6-methylpyridin-2-yl)pyrimidin-4-amine]
35 | ++ (++ means 200 nM-1000 nM) | Cc1cc(C)n(-c2cc(C3CC3)nc(NC3CCC(F)(F)CC3)n2)n1 [Compound 226, 4-cyclopropyl-N-(4,4-difluorocyclohexyl)-6-(3,5-dimethyl-1H-pyrazol-1-yl)pyrimidin-2-amine]
36 | ++ (++ means 200 nM-1000 nM) | Cc1cc(C)n(-c2cc(NC3COC3)cc(NC3CCC(F)(F)CC3)n2)n1 [Compound 228, N2-(4,4-difluorocyclohexyl)-6-(3,5-dimethyl-1H-pyrazol-1-yl)-N4-(oxetan-3-yl)pyridine-2,4-diamine]
37 | ++ (++ means 200 nM-1000 nM) | Cc1cc(C)n(-c2cc(CF)cc(NC3CCC(F)(F)CC3)n2)n1 [Compound 229, N-(4,4-difluorocyclohexyl)-6-(3,5-dimethyl-1H-pyrazol-1-yl)-4-(fluoromethyl)pyridin-2-amine]
38 | + (+ means >1 uM) | Cc1cc(NC2CCC(F)(F)CC2)nc(-c2cccc(Cl)n2)n1 [Compound 230, 2-(6-chloropyridin-2-yl)-N-(4,4-difluorocyclohexyl)-6-methyl pyrimidin-4-amine]
